From the supplement of paper PMC11451515

How the values were obtained:
Conditions in all cases: 48 h
SEM cells [1] = assay: AUC of viability dose-response curve (% viability x log10 dose units); higher = less sensitive
Method in brief: (§1)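 Over 48 h at 37°C, leukemia cells in 1536-well plates (500 or 1000 cells/well), adapted to each medium, received library compounds in DMSO at 11 threefold doses from 47 μM to 0.79 nM. CellTiter-Glo One luminescence, normalised per plate to DMSO and cell-free wells, was fitted by a four-parameter log-logistic function of log10 dose. The area under the curve was then integrated by trapezoidal rule, after scaling curves above full viability and removing those that failed quality control.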

NOMO1 [2] = assay: as above
Method in brief: as §1

P12-Ichikawa [3] = assay: as above
Method in brief: as §1

SEM cells [4] = assay: cell viability relative to DMSO control; higher = less cytotoxic
Method in brief: (§2)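 Leukemia cells (NOMO1 or SEM, 500 cells/well; P12-Ichikawa, 1000 cells/well) were seeded in 5 μl in 1536-well plates after at least four passages of adaptation to each medium. They received library compounds in DMSO by pin dosing, 11 threefold points from 47 μM to 0.79 nM. Luminescence with CellTiter-Glo One was read after 48 h at 37°C. Viability is stated per plate relative to DMSO wells, with cell-free wells as background.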

NOMO1 [5] = assay: as above
Method in brief: as §2

P12-Ichikawa [6] = assay: as above
Method in brief: as §2

N[C@@H](Cc1cc(I)c(Oc2cc(I)c(O)c(I)c2)c(I)c1)C(=O)O
AUC of viability dose-response curve
Conditions | NOMO1 [2] | P12-Ichikawa [3] | SEM cells [1]
HPLM + 10% dialyzed FBS | 456 | 445 | 463
RPMI 5 mM glucose + 10% FBS | 473 | 460 | 454
RPMI 5 mM glucose + 10% dialyzed FBS | 429 | 468 | 438

cell viability [%]
Conditions | NOMO1 [5] | P12-Ichikawa [6] | SEM cells [4]
HPLM + 10% dialyzed FBS, 0.000781 µM | 119 | 118 | 102
HPLM + 10% dialyzed FBS, 0.00234 µM | 109 | 116 | 121
HPLM + 10% dialyzed FBS, 0.00702 µM | 105 | 106 | 107
HPLM + 10% dialyzed FBS, 0.0211 µM | 103 | 113 | 113
HPLM + 10% dialyzed FBS, 0.0632 µM | 111 | 113 | 78.2
HPLM + 10% dialyzed FBS, 0.19 µM | 109 | 103 | 129
HPLM + 10% dialyzed FBS, 0.569 µM | 125 | 106 | 119
HPLM + 10% dialyzed FBS, 1.71 µM | 94.5 | 109 | 120
HPLM + 10% dialyzed FBS, 5.12 µM | 112 | 106 | 117
HPLM + 10% dialyzed FBS, 15.4 µM | 104 | 101 | 93.8
HPLM + 10% dialyzed FBS, 46.1 µM | 97.4 | 98.6 | 92.2
RPMI 5 mM glucose + 10% FBS, 0.000781 µM | 92.9 | 126 | 98.2
RPMI 5 mM glucose + 10% FBS, 0.00234 µM | 105 | 120 | 105
RPMI 5 mM glucose + 10% FBS, 0.00702 µM | 107 | 121 | 103
RPMI 5 mM glucose + 10% FBS, 0.0211 µM | 100 | 113 | 106
RPMI 5 mM glucose + 10% FBS, 0.0632 µM | 101 | 123 | 59.2
RPMI 5 mM glucose + 10% FBS, 0.19 µM | 97 | 124 | 112
RPMI 5 mM glucose + 10% FBS, 0.569 µM | 108 | 122 | 115
RPMI 5 mM glucose + 10% FBS, 1.71 µM | 105 | 107 | 104
RPMI 5 mM glucose + 10% FBS, 5.12 µM | 93.6 | 112 | 94.2
RPMI 5 mM glucose + 10% FBS, 15.4 µM | 112 | 114 | 88.3
RPMI 5 mM glucose + 10% FBS, 46.1 µM | 84.8 | 104 | 84.6
RPMI 5 mM glucose + 10% dialyzed FBS, 0.000781 µM | 109 | 111 | –
RPMI 5 mM glucose + 10% dialyzed FBS, 0.00234 µM | 116 | 107 | –
RPMI 5 mM glucose + 10% dialyzed FBS, 0.00702 µM | 113 | 108 | –
RPMI 5 mM glucose + 10% dialyzed FBS, 0.0211 µM | 113 | 109 | –
RPMI 5 mM glucose + 10% dialyzed FBS, 0.0632 µM | 94.1 | 109 | –
RPMI 5 mM glucose + 10% dialyzed FBS, 0.19 µM | 95.5 | 114 | –
RPMI 5 mM glucose + 10% dialyzed FBS, 0.569 µM | 96.9 | 103 | –
RPMI 5 mM glucose + 10% dialyzed FBS, 1.71 µM | 98.9 | 111 | –
RPMI 5 mM glucose + 10% dialyzed FBS, 5.12 µM | 94 | 104 | –
RPMI 5 mM glucose + 10% dialyzed FBS, 15.4 µM | 96.8 | 103 | –
RPMI 5 mM glucose + 10% dialyzed FBS, 46.1 µM | 92.6 | 101 | –

O=C(Nc1cccc2c(=O)cc(-c3nnn[nH]3)oc12)c1ccc(OCCCCc2ccccc2)cc1
AUC of viability dose-response curve
Conditions | NOMO1 [2] | P12-Ichikawa [3] | SEM cells [1]
HPLM + 10% dialyzed FBS | 433 | 424 | 378
RPMI 5 mM glucose + 10% FBS | 384 | 416 | 371
RPMI 5 mM glucose + 10% dialyzed FBS | 404 | 389 | 392

cell viability [%]
Conditions | NOMO1 [5] | P12-Ichikawa [6] | SEM cells [4]
HPLM + 10% dialyzed FBS, 0.000781 µM | 75.4 | 86.7 | 68.3
HPLM + 10% dialyzed FBS, 0.00234 µM | 80.8 | 84.2 | 78.5
HPLM + 10% dialyzed FBS, 0.00702 µM | 104 | 90.4 | 85.2
HPLM + 10% dialyzed FBS, 0.0211 µM | 107 | 93.9 | 91.3
HPLM + 10% dialyzed FBS, 0.0632 µM | 100 | 101 | 84.6
HPLM + 10% dialyzed FBS, 0.19 µM | 110 | 94.8 | 91.2
HPLM + 10% dialyzed FBS, 0.569 µM | 94.1 | 90 | 93
HPLM + 10% dialyzed FBS, 1.71 µM | 102 | 96 | 96
HPLM + 10% dialyzed FBS, 5.12 µM | 95 | 96.9 | 93.8
HPLM + 10% dialyzed FBS, 15.4 µM | 83.9 | 101 | 21.4
HPLM + 10% dialyzed FBS, 46.1 µM | 8.37 | 15.5 | 49.2
RPMI 5 mM glucose + 10% FBS, 0.000781 µM | 73.4 | 81 | 76.6
RPMI 5 mM glucose + 10% FBS, 0.00234 µM | 81.2 | 84.9 | 97.5
RPMI 5 mM glucose + 10% FBS, 0.00702 µM | 85.2 | 99.9 | 87
RPMI 5 mM glucose + 10% FBS, 0.0211 µM | 84.6 | 91.8 | 86.6
RPMI 5 mM glucose + 10% FBS, 0.0632 µM | 84.4 | 95.7 | 92.1
RPMI 5 mM glucose + 10% FBS, 0.19 µM | 93.7 | 89.4 | 90.7
RPMI 5 mM glucose + 10% FBS, 0.569 µM | 90.1 | 88.9 | 91.9
RPMI 5 mM glucose + 10% FBS, 1.71 µM | 88.6 | 91 | 86.6
RPMI 5 mM glucose + 10% FBS, 5.12 µM | 79 | 87.6 | 88.4
RPMI 5 mM glucose + 10% FBS, 15.4 µM | 81.5 | 80 | 17.2
RPMI 5 mM glucose + 10% FBS, 46.1 µM | 10.5 | 54.6 | 13.5
RPMI 5 mM glucose + 10% dialyzed FBS, 0.000781 µM | 82.8 | 73.1 | 70.8
RPMI 5 mM glucose + 10% dialyzed FBS, 0.00234 µM | 95.1 | 80.4 | 90.5
RPMI 5 mM glucose + 10% dialyzed FBS, 0.00702 µM | 91.7 | 87 | 105
RPMI 5 mM glucose + 10% dialyzed FBS, 0.0211 µM | 97.5 | 88.7 | 96.2
RPMI 5 mM glucose + 10% dialyzed FBS, 0.0632 µM | 94.1 | 86.7 | 99.6
RPMI 5 mM glucose + 10% dialyzed FBS, 0.19 µM | 88.9 | 92.5 | 92.6
RPMI 5 mM glucose + 10% dialyzed FBS, 0.569 µM | 94.4 | 85.1 | 102
RPMI 5 mM glucose + 10% dialyzed FBS, 1.71 µM | 83.3 | 81.6 | 79.9
RPMI 5 mM glucose + 10% dialyzed FBS, 5.12 µM | 80.3 | 85.5 | 92.8
RPMI 5 mM glucose + 10% dialyzed FBS, 15.4 µM | 73.7 | 85.4 | 19.2
RPMI 5 mM glucose + 10% dialyzed FBS, 46.1 µM | 22.8 | 21.7 | 33.2

CN(C)[C@H]\1[C@@H]2[C@@H](O)[C@H]3\C(=C(O)/[C@]2(O)C(=O)\C(=C1O)C(N)=O)C(=O)C4=C(C=CC=C4O)[C@@]3(C)O
AUC of viability dose-response curve
Conditions | NOMO1 [2] | P12-Ichikawa [3] | SEM cells [1]
HPLM + 10% dialyzed FBS | 448 | 454 | 459
RPMI 5 mM glucose + 10% FBS | 459 | 456 | 463
RPMI 5 mM glucose + 10% dialyzed FBS | 449 | 421 | 476

cell viability [%]
Conditions | NOMO1 [5] | P12-Ichikawa [6] | SEM cells [4]
HPLM + 10% dialyzed FBS, 0.000781 µM | 134 | – | 100
HPLM + 10% dialyzed FBS, 0.00234 µM | 117 | – | 95.3
HPLM + 10% dialyzed FBS, 0.00702 µM | 117 | – | 99.4
HPLM + 10% dialyzed FBS, 0.0211 µM | 138 | – | 98.8
HPLM + 10% dialyzed FBS, 0.0632 µM | 127 | – | 98.9
HPLM + 10% dialyzed FBS, 0.19 µM | 131 | – | 106
HPLM + 10% dialyzed FBS, 0.569 µM | 130 | – | 105
HPLM + 10% dialyzed FBS, 1.71 µM | 108 | – | 103
HPLM + 10% dialyzed FBS, 5.12 µM | 113 | – | 117
HPLM + 10% dialyzed FBS, 15.4 µM | 104 | – | 106
HPLM + 10% dialyzed FBS, 46.1 µM | 30.7 | – | 95.7
RPMI 5 mM glucose + 10% FBS, 0.000781 µM | 112 | 130 | 102
RPMI 5 mM glucose + 10% FBS, 0.00234 µM | 131 | 123 | 123
RPMI 5 mM glucose + 10% FBS, 0.00702 µM | 120 | 125 | 121
RPMI 5 mM glucose + 10% FBS, 0.0211 µM | 135 | 127 | 125
RPMI 5 mM glucose + 10% FBS, 0.0632 µM | 123 | 127 | 115
RPMI 5 mM glucose + 10% FBS, 0.19 µM | 126 | 131 | 114
RPMI 5 mM glucose + 10% FBS, 0.569 µM | 122 | 130 | 129
RPMI 5 mM glucose + 10% FBS, 1.71 µM | 117 | 106 | 121
RPMI 5 mM glucose + 10% FBS, 5.12 µM | 113 | 96.1 | 104
RPMI 5 mM glucose + 10% FBS, 15.4 µM | 119 | 128 | 133
RPMI 5 mM glucose + 10% FBS, 46.1 µM | 37.1 | 116 | 118
RPMI 5 mM glucose + 10% dialyzed FBS, 0.000781 µM | 117 | – | 113
RPMI 5 mM glucose + 10% dialyzed FBS, 0.00234 µM | 128 | – | 121
RPMI 5 mM glucose + 10% dialyzed FBS, 0.00702 µM | 117 | – | 121
RPMI 5 mM glucose + 10% dialyzed FBS, 0.0211 µM | 122 | – | 118
RPMI 5 mM glucose + 10% dialyzed FBS, 0.0632 µM | 119 | – | 125
RPMI 5 mM glucose + 10% dialyzed FBS, 0.19 µM | 128 | – | 124
RPMI 5 mM glucose + 10% dialyzed FBS, 0.569 µM | 123 | – | 115
RPMI 5 mM glucose + 10% dialyzed FBS, 1.71 µM | 136 | – | 114
RPMI 5 mM glucose + 10% dialyzed FBS, 5.12 µM | 105 | – | 122
RPMI 5 mM glucose + 10% dialyzed FBS, 15.4 µM | 104 | – | 118
RPMI 5 mM glucose + 10% dialyzed FBS, 46.1 µM | 30.1 | – | 118
